The subject of one data set is liver mitochondria. The experiment in a line: Exposed protein thiols, glutathionylation and GSH/GSSG in liver mitochondria. The format is biochemical, rat. The method, then:
Mitochondrial incubations were usually in KCl buffer (120 mM KCl, 10 mM HEPES, 1 mM EGTA, 100 μM N,N-bis(2-bis[carboxymethyl]aminoethyl) glycine (DTPA) and 10 μM neocuproine, pH 7.2) with 10 mM succinate and 4 μg/ml rotenone in the dark at 37° C., unless stated otherwise. An electrode selective for the TPP moiety of MitoSNAP and MitoNAP was made and used as described previously (Asin-Cayuela, J., Manas, A. R., James, A. M., Smith, R. A. & Murphy, M. P. Fine-tuning the hydrophobicity of a mitochondria-targeted antioxidant. FEBS Letts. 571, 9-16 (2004)). Respiration rates were measured in a Clark type O2 electrode (Rank Brothers, UK). To measure GSH and GSSG, mitochondria (1 mg protein/ml) were incubated with 0-10 μM MitoSNO1 or MitoNAP for 10 min, pelleted by centrifugation and the GSH and GSSG contents assessed by the recycling assay (Scarlett, J. L., Packer, M. A., Porteous, C. M. & Murphy, M. P. Alterations to glutathione and nicotinamide nucleotides during the mitochondrial permeability transition induced by peroxynitrite. Biochem. Pharmacol. 52, 1047-1055 (1996)). The measurement of exposed mitochondrial protein thiols is described below.
Small molecules were removed by centrifugation through MicroBioSpin Columns (cut off=6 kDa), the eluate was clarified by centrifugation (2 min at 10,000×g) and protein thiols measured in triplicate by mixing 10 μl sample or GSH standard with 160 μl of 200 μM dithionitrobenzoic acid (DTNB) in 80 mM NaPi, 1 mM EDTA, pH 8 in a 96 well plate and absorbance at 412 nm was measured after 30 min at room temperature and the thiol content determined from the GSH standard curve. The protein concentration was measured in parallel by the bicinchonininc assay using BSA as a standard.
The interaction of MitoSNAP with mitochondrial thiol proteins is likely to initiate a dynamic process that may lead to other protein thiol modifications, such as disulfide formation, glutathionylation, sulfenylation or sulfenylamide formation, in addition to persistent S-nitrosation. To assess these, the content of reactive, solvent-exposed thiols on native liver mitochondrial proteins was measured. […] This is consistent with the finding that the maximum extent of mitochondrial protein S-nitrosation by 5 μM MitoSNAP (˜500 pmol SNO/mg protein; FIG. 11) was only ˜1% of the total number of protein thiols available. A small amount of MitoSNAP binding to mitochondrial thiol proteins through the formation of mixed disulfides was detectable by immunoblotting.

A further data set relates to complex I. As to the kind of experiment: Respiration by bovine heart mitochondrial membranes on NADH or succinate. It is filed as biochemical. The following applies: 75 μM, 5 min. The method, then:
(a) Effect of MitoSNAP on mitochondrial respiration.
Mitochondrial preparations and incubations.

The nature of data set [1]: Reaction with GSH and half-life in the cytosol. The format is physicochemical. The following applies: cytosol (estimated) with 5 mM GSH; physiological GSH concentration of 5 mM. The method, then:
The uptake of alkylTPP molecules into mitochondria within cells is rapid, equilibrating within 5-10 min (Ross, M. F. et al. Rapid and extensive uptake and activation of hydrophobic triphenylphosphonium cations within cells. Biochem. J. 411, 633-645 (2008)), and the rate limiting step is passage across the plasma membrane with rapid subsequent uptake into mitochondria (Ross, M. F. et al. Rapid and extensive uptake and activation of hydrophobic triphenylphosphonium cations within cells. Biochem. J. 411, 633-645 (2008) and Smith, R. A., Kelso, G. F., James, A. M. & Murphy, M. P. Targeting coenzyme Q derivatives to mitochondria. Meth. Enzymol. 382, 45-67 (2004)). Consequently, once through the plasma membrane, MitoSNAP should remain in the cytosol for a very short time before uptake into mitochondria. The rate of reaction of GSH with SNAP is 5.4 M^−1.s^−1 (Hogg, N. The kinetics of S-transnitrosation-a reversible second-order reaction. Anal. Biochem. 272, 257-62 (1999)). While other pathways of MitoSNAP decay in the cytosol may also contribute, GSH is likely to be the major one and at a physiological GSH concentration of 5 mM the half-life for MitoSNAP in the cytosol should be ˜25 s, giving plenty of time for MitoSNAP uptake into mitochondria. […]

For `CC(=O)NC(C(=O)NCCCCC[P+](c1ccccc1)(c1ccccc1)c1ccccc1)C(C)(C)SN=O.CS(=O)(=O)[O-]` (stereo not drawn) [MitoSNAP, [5-(2-acetylamino-3-methyl-3-nitrosothio-butyrylamino)-penty1]-triphenylphosphonium methanesulfonate], in the data set on liver mitochondria (5 μM, 5 min, mean±sem, n=3), the “reactive, solvent-exposed thiols on native liver mitochondrial proteins” value was 46.7±9.6 nmol thiols/mg protein. Further, the “GSH and GSSG content of mitochondria” value with liver mitochondria (10 μM, 10 min) is reported as “no loss of GSH or accumulation of GSSG”. Moreover, in the data set with liver mitochondria (mitochondria, MitoSNAP 5 μM), the “protein-glutathione mixed disulfides (glutathionylation)” value is listed as “not detectable”. Also, in the data set on complex I, the “effect on succinate respiration” value is reported as “unaffected” and the “inhibition of NADH respiration” value is given as “about 35%”. Besides, in data set [1], the half-life was ~25 s.

As usually defined, the half-life is how long it takes for the measured level to halve.
